Measurements: US11242334B2, “Heterocyclic compounds as kinase inhibitors, compositions comprising the heterocyclic compound, and methods of use thereof” (JS INNOPHARM (SHANGHAI) LTD, priority 2017, dated 2022)

Key:
human ERK2 = molecular target: T1, human ERK2 (Homo sapiens, UniProt P28482); assay: LanthaScreen TR-FRET enzymatic assay, ERK2; details: IC50 values of ERK2 biochemical activity; 5 μM ATP, 400 nM ATF2-GFP substrate
T1 construct: recombinantly expressed as GST-tagged full-length protein purified from E. coli; GST; purchased Invitrogen PV3311; host or cells: E. coli
Outline: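 IC50 values were fitted from percent of DMSO control using a 520/495 nm TR-FRET ratio with terbium anti-pATF2 (pThr71), read after an EDTA stop. The kinase reaction lasted one hour at room temperature, following 15-min compound pre-treatment. It contained 5 μM ATP, 400 nM ATF2-GFP substrate and 20 ng/ml in vitro-activated GST-ERK2.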

Colo205 cell line = assay: Colo205 cell proliferation assay (MTT assay, WST-8 readout); assay type: cell-based; details: Homo sapiens; IC50 values of growth inhibition in Colo 205 cells; 72 hours
Outline: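 Growth-inhibition IC50 was derived from WST-8 absorbance at 450 nm (2 h development) after 72 h compound exposure at 37° C. Exposure used final 50 μM–0.005 μM compound in 0.5% DMSO. Colo205 cells had been plated at 5,000/well in RPMI-1640 plus 10% FBS and allowed 24 h to attach.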

T1 sequence (P28482 whole entry): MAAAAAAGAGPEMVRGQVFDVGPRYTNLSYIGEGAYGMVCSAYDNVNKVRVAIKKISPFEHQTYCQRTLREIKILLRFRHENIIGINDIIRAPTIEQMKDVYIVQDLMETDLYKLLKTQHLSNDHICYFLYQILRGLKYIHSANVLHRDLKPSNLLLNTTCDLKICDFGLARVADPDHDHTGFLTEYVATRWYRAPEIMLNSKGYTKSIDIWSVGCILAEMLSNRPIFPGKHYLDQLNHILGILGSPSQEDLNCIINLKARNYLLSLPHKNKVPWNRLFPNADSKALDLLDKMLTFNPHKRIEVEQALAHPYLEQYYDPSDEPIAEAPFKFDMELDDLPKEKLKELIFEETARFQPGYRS

IC50 (human ERK2) [nM] | IC50 (Colo205 cell line) [nM] | SMILES
< 10 | 1000 to 5000 | Cc1cc(-c2n[nH]c3cnc(-c4ccn(Cc5ccnc(C(F)(F)F)c5)c(=O)c4)cc23)ccn1 [Example 144, 4-(3-(2-methylpyridin-4-yl)-1H-pyrazolo[3,4-c]pyridin-5-yl)-1-((2-(trifluoromethyl)pyridin-4-yl)methyl)pyridin-2(1H)-one]
< 10 | 500 to 1000 | O=c1cc(-c2ccc3[nH]nc(C4CCOCC4)c3c2)ccn1[C@H](CO)c1cc(F)cc(Br)c1 [Example 145, (S)-1-(1-(3-bromo-5-fluorophenyl)-2-hydroxyethyl)-4-(3-(tetrahydro-2H-pyran-4-yl)-1H-indazol-5-yl)pyridin-2(1H)-one]
< 10 | 1000 to 5000 | CC(c1cc(F)cc(Br)c1)n1ccc(-c2ccc3[nH]nc(C4CCOCC4)c3c2)cc1=O (stereo not drawn) [Example 146, 1-(1-(3-bromo-5-fluorophenyl)ethyl)-4-(3-(tetrahydro-2H-pyran-4-yl)-1H-indazol-5-yl)pyridin-2(1H)-one]
< 10 | ≤ 500 | O=c1cc(-c2ccc3[nH]nc(C4CCOCC4)c3c2)ccn1Cc1ccnc(C(F)(F)F)c1 [Example 147, 4-(3-(tetrahydro-2H-pyran-4-yl)-1H-indazol-5-yl)-1-((2-(trifluoromethyl)pyridin-4-yl)methyl)pyriidn-2(1H)-one]
< 10 | 1000 to 5000 | O=c1cc(-c2ccc3[nH]nc([C@H]4CC[C@H](O)CC4)c3c2)ccn1Cc1ccnc(C(F)(F)F)c1 [Example 148, 4-(3-((1r,4r)-4-hydroxycyclohexyl)-1H-indazol-5-yl)-1-((2-(trifluoromethyl)pyridin-4-yl)methyl)pyridin-2(1H)-one]
10 to 50 | > 5000 | O=c1cc(-c2ccc3[nH]nc([C@H]4CC[C@@H](O)CC4)c3c2)ccn1Cc1ccnc(C(F)(F)F)c1 [Example 149, 4-(3-((1s,4s)-4-hydroxycyclohexyl)-1H-indazol-5-yl)-1-((2-(trifluoromethyl)pyridin-4-yl)methyl)pyridin-2(1H)-one]
